pEC50: −log10 of the molar value.
System: HIV-1IIIB (wild type)
Test: XTT assay in MT-4 cells infected with wild type HIV-1IIIB
Assay type: cell-based
Settings: Human immunodeficiency virus 1, MT4, read-out: ED50
Procedure: Compounds of the invention are assayed for HIV activity, for example using multiple determinations with XTT in MT-4 cells (Weislow et al, J Nat Cancer Inst 1989, vol 81 no 8, 577 et seq), preferably including determinations in the presence of 40-50% human serum to indicate the contribution of protein binding. In short the XTT assay uses human T cell line MT4 cells grown in RPMI 1640 medium supplemented with 10% fetal calf serum (or 40-50% human serum as appropriate), penicillin and streptomycin seeded into 96 well microplates (2·10^4 cells/well) infected with 10-20 TCID50 per well of HIV-1IIIB (wild type) or mutant virus, such as those bearing RT IIe 100, Cys 181 or Asn 103 mutations. Serially diluted test compounds are added to respective wells and the culture incubated at 37° C. in a CO2 enriched atmosphere and the viability of cells is determined at day five or six with XTT vital dye. Results are typically presented as ED50 μM.

Structure (SMILES) | pEC50
N#Cc1ccc(NC(=O)N[C@@H]2[C@@H]3Cc4cc(Br)ccc4[C@@H]32)nc1 (racemic) [Example 17, (±)-cis-1-(5-cyano-2-pyridinyl)-3-(4-bromo-1,1a,6,6a-tetrahydro-cyclopropa[a]inden-1-yl)-urea] | 7.38
O=C(Nc1ccc(Cl)cn1)N[C@@H]1[C@@H]2Cc3c(F)ccc(F)c3[C@@H]21 (racemic) [Example 19, (±)-cis-1-(5-chloro-2-pyridinyl)-3-(2,5-difluoro-1,1a,6,6a-tetrahydro-cyclopropa[a]inden-1-yl)-urea] | 8.00
COc1ccc2c(c1)CC[C@H]1[C@@H](NC(=O)Nc3ccc(C#N)cn3)[C@@H]21 [Example 5, +/−cis-N-(5-cyano-2-pyridinyl)-N-(5-methoxy-1a,2,3,7b-tetrahydro-1H-cyclopropa[a]naphthalen-1-yl)urea] | 8.05
C#Cc1ccc2c(c1)CC[C@H]1[C@@H](NC(=O)Nc3ccc(Br)cn3)[C@@H]21 [Example 9, +/−cis-N-(5-bromo-2-pyridinyl)-N-(5-ethynyl-1a,2,3,7b-tetrahydro-1H-cyclopropa[a]naphthalen-1-yl)urea] | 7.36
N#Cc1ccc(NC(=O)N[C@@H]2[C@@H]3Cc4c(F)ccc(F)c4[C@@H]32)nc1 (racemic) [Example 20, (±)-cis-1-(5-cyano-2-pyridinyl)-3-(2,5-difluoro-1,1a,6,6a-tetrahydro-cyclopropa[a]inden-1-yl)-urea] | 7.85
COc1ccc2c(c1)[C@H]1[C@@H](CC2)[C@H]1NC(=O)Nc1ccc(C#N)cn1 [Example 6, +/−cis-N-(5-cyano-2-pyridinyl)-N-(6-methoxy-1a,2,3,7b-tetrahydro-1H cyclopropa[a]naphthalen-1-yl)urea] | 7.44
C#Cc1ccc2c(c1)CC[C@H]1[C@@H](NC(=O)Nc3ccc(C#N)cn3)[C@@H]21 [Example 8, +/−cis-N-(5-cyano-2-pyridinyl)-N-(5-ethynyl-1a,2,3,7b-tetrahydro-1H-cyclopropa[a]naphthalen-1-yl)urea] | 7.49
